Reference: patent publication US12054498B2, “Heteroaromatic macrocyclic ether chemotherapeutic agents” (Nuvalent, Inc., priority 2020, dated 2024)
pIC50, pKi: −log10 of the molar value.

Key:
[1] = biological target: T1, Ba/F3 cells EML4-ALK L1196M/G1202R (variant 1) (Homo sapiens, UniProt Q9UM73, G1202R/L1196M); experiment: Ba/F3 cell proliferation assay, EML4-ALK L1196M/G1202R (variant 1); format: cell-based; conditions: 72 hours, CellTiter-Glo
T1 construct: echinoderm microtubule-associated protein-like 4 (EML4) gene and the ALK tyrosine kinase domain; host or cells: Ba/F3 (RIKEN), retroviral pMSCV-puro; the other entry of the earlier key: EML4 (Q9HC35, Echinoderm microtubule-associated protein-like 4)
How it was run: (§1)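 Luminescence from CellTiter-Glo after 72 hours of compound exposure measured viability of IL-3-independent Ba/F3 cells carrying the retrovirally introduced fusion. Cells were plated at 1,000 per well one day before 3-fold serial dilutions were added. IC50 values came from four-parameter logistic regression.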

ALK L1196M/G1202R = biological target: T2, ALK L1196M/G1202R (Homo sapiens, UniProt Q9UM73, G1202R/L1196M); experiment: Biochemical kinase assay, ALK L1196M/G1202R kinase domain; conditions: apparent inhibitory constant, Morrison equation; ATP 2 mM in substrate solution; read-out: ALK-L1196M-G1202R Ki^app
T2 construct: purchased SignalChem A19-12NG
How it was run: (§2)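 Kinase domains (in kinase solution: ROS1-G2032R 0.5 nM, ROS1-wt 0.6 nM, TRKA 1 nM, ALK L1196M/G1202R 3 nM) were mixed with compound and a substrate solution of 2 mM ATP plus 26 μM fluorogenic AQT0101 (ALK, ROS1) or AQT0104 (TRKA) in HEPES pH 7.5/MgCl2. Fluorescence was followed for 120 min at 30° C; Ki^app was obtained by Morrison fit of initial rates.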

[2] = biological target: T3, Ba/F3 cells EML4-ALK wt (variant 1) (Homo sapiens, UniProt Q9UM73); experiment: Ba/F3 cell proliferation assay, EML4-ALK wt (variant 1); format: cell-based; conditions: 72 hours, CellTiter-Glo
T3 construct: echinoderm microtubule-associated protein-like 4 (EML4) gene and the ALK tyrosine kinase domain; host or cells: Ba/F3 (RIKEN), retroviral pMSCV-puro; the other entry of the earlier key: EML4 (Q9HC35, Echinoderm microtubule-associated protein-like 4)
How it was run: as §1

ROS1-wt = biological target: T4, ROS1-wt (Homo sapiens, UniProt P08922); experiment: Biochemical kinase assay, ROS1-wt kinase domain; conditions: apparent inhibitory constant, Morrison equation; ATP 2 mM in substrate solution; read-out: ROS1-wt Ki^app
T4 construct: purchased Carna 08-163
How it was run: (§3)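 Compounds, as 100-fold DMSO stocks, were dispensed first, then substrate mix was added (ATP 2 mM, AQT0101 26 μM, in 50 mM HEPES pH 7.5/10 mM MgCl2). Reactions ran at 30 °C with fluorescence logged every 2 min over 120 min. Apparent inhibition constants came from fitting rates to Morrison's tight-binding equation.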

[3] = biological target: T5, Ba/F3 cells CD74-ROS1 G2032R (Homo sapiens, UniProt P08922, G2032R); experiment: Ba/F3 cell proliferation assay, CD74-ROS1 G2032R; format: cell-based; conditions: 72 hours, CellTiter-Glo
T5 construct: fusion of the C-terminus of ROS1 with the N-terminus of various partner proteins; host or cells: Ba/F3 (RIKEN), retroviral pMSCV-puro; the other entry of the earlier key: CD74 (P04233, HLA class II histocompatibility antigen gamma chain)
How it was run: (§4)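 Cells seeded 1 day, then treated with 3-fold compound dilutions for 72 h; viability by CellTiter-Glo luminescence. IC50 from percent inhibition by four-parameter logistic fit.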

[4] = biological target: T6, Ba/F3 cells CD74-ROS1 wild-type (wt) (Homo sapiens, UniProt P08922); experiment: Ba/F3 cell proliferation assay, CD74-ROS1 wild-type; format: cell-based; conditions: 72 hours, CellTiter-Glo
T6 construct: fusion of the C-terminus of ROS1 with the N-terminus of various partner proteins; host or cells: Ba/F3 (RIKEN), retroviral pMSCV-puro; the other entry of the earlier key: CD74 (P04233, HLA class II histocompatibility antigen gamma chain)
How it was run: as §4

ROS1-G2032R = biological target: T7, ROS1-G2032R (Homo sapiens, UniProt P08922, G2032R); experiment: Biochemical kinase assay, ROS1-G2032R kinase domain; conditions: apparent inhibitory constant, Morrison equation; ATP 2 mM in substrate solution; read-out: ROS1-G2032R Ki^app
T7 construct: purchased SignalChem R14-12BG
How it was run: as §3

[5] = test system: TPM3-NTRK1-wt IC50 / primary target IC50 (e.g. CD74-ROS1-wt); experiment: TRKA selectivity in Ba/F3 cells (TRKA potency divided by primary target potency); format: cell-based; conditions: for TPM3-NTRK1-wt/CD74-ROS1-G2032R selectivity ratio: TRKA potency / CD74-ROS1-G2032R potency; for TPM3-NTRK1-wt/CD74-ROS1-wt selectivity ratio: TRKA potency / CD74-ROS1-wt potency; for TPM3-NTRK1-wt/EML4-ALK-L1196M-G1202R selectivity ratio: TRKA potency / EML4-ALK-L1196M-G1202R potency; for TPM3-NTRK1-wt/EML4-ALK-wt selectivity ratio: TRKA potency / EML4-ALK-wt potency
Protocol: TRKA selectivity was calculated by dividing a compound's TRKA potency by its primary target potency (e.g. TPM3-NTRK1-wt IC50/CD74-ROS1-wt IC50). Compound selectivity can be interpreted by binning ratio values: bin A for very high selectivity, ratio >30-fold; bin B for high selectivity, ratio >10-fold; bin C for moderate selectivity, ratio ≥1; and bin D for low selectivity, ratio <1. […] (nd=not determined).

ALK-wt = biological target: T8, ALK-wt (Homo sapiens, UniProt Q9UM73); experiment: Biochemical kinase assay, ALK-wt kinase domain; conditions: apparent inhibitory constant, Morrison equation; ATP 2 mM in substrate solution; read-out: ALK-wt Ki^app
T8 construct: purchased Carna 08-518
How it was run: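 Apparent Ki values come from fitting initial reaction rates against inhibitor concentration to the Morrison equation. Rates were taken from the linear phase of fluorogenic substrate phosphorylation (AQT0101 for ALK and ROS1, AQT0104 for TRKA; 26 μM in substrate solution with 2 mM ATP), monitored at 485 nm over 120 min at 30° C.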

TRKA-wt = biological target: T9, TRKA-wt (Homo sapiens, UniProt P04629); experiment: Biochemical kinase assay, TRKA-wt kinase domain; conditions: apparent inhibitory constant, Morrison equation; ATP 2 mM in substrate solution; read-out: TRKA-wt Ki^app
T9 construct: or TRKA-wt (1 nM, BPS Bio, 40280) kinase domains in buffer; purchased BPS Bio 40280
How it was run: as §2

Ba/F3 cells TPM3-TRKA = biological target: T10, Ba/F3 cells TPM3-TRKA (Homo sapiens, UniProt P04629); experiment: Ba/F3 cell proliferation assay, TPM3-TRKA; format: cell-based; conditions: 72 hours, CellTiter-Glo, read-out: TPM3-NTRK1-wt IC50
T10 construct: host or cells: Ba/F3 (RIKEN), retroviral pMSCV-puro; the other entry of the earlier key: TPM3 (P06753, Tropomyosin alpha-3 chain)
How it was run: as §1

T5 sequence (P08922 1883-2347 G2032R limits assumed): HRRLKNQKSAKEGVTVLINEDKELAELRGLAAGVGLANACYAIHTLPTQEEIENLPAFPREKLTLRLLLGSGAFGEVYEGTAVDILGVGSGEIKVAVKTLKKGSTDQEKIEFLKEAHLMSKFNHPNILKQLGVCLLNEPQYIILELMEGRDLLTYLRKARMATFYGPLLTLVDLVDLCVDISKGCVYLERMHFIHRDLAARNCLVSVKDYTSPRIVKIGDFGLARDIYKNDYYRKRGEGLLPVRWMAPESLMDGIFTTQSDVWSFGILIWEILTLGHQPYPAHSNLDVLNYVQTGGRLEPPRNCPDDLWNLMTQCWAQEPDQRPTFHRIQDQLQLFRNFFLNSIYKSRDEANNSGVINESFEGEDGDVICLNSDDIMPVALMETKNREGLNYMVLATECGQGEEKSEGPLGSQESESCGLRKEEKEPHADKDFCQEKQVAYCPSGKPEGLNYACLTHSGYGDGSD
T4 sequence (P08922 1945-2222 limits assumed): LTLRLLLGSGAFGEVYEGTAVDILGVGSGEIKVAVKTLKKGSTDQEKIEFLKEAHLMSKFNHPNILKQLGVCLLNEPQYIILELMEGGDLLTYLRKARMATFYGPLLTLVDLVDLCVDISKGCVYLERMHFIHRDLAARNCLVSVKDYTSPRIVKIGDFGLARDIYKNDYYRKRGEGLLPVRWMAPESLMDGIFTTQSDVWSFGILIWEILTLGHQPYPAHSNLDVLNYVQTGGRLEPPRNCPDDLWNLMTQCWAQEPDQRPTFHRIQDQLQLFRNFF
T6 sequence (P08922 1883-2347 limits assumed): as the sequence (P08922 1883-2347 G2032R limits assumed) above, with R150G counted along it
T8 sequence (Q9UM73 1116-1392 limits assumed): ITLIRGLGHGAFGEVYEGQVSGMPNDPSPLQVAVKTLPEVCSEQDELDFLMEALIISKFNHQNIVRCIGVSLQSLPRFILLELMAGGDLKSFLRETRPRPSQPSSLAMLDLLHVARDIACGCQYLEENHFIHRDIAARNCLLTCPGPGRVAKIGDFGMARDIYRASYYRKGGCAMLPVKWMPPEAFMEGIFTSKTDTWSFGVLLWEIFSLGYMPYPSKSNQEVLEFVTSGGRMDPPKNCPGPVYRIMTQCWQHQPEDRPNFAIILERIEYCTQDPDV
T3 sequence (Q9UM73 with tags, fused parts or gaps): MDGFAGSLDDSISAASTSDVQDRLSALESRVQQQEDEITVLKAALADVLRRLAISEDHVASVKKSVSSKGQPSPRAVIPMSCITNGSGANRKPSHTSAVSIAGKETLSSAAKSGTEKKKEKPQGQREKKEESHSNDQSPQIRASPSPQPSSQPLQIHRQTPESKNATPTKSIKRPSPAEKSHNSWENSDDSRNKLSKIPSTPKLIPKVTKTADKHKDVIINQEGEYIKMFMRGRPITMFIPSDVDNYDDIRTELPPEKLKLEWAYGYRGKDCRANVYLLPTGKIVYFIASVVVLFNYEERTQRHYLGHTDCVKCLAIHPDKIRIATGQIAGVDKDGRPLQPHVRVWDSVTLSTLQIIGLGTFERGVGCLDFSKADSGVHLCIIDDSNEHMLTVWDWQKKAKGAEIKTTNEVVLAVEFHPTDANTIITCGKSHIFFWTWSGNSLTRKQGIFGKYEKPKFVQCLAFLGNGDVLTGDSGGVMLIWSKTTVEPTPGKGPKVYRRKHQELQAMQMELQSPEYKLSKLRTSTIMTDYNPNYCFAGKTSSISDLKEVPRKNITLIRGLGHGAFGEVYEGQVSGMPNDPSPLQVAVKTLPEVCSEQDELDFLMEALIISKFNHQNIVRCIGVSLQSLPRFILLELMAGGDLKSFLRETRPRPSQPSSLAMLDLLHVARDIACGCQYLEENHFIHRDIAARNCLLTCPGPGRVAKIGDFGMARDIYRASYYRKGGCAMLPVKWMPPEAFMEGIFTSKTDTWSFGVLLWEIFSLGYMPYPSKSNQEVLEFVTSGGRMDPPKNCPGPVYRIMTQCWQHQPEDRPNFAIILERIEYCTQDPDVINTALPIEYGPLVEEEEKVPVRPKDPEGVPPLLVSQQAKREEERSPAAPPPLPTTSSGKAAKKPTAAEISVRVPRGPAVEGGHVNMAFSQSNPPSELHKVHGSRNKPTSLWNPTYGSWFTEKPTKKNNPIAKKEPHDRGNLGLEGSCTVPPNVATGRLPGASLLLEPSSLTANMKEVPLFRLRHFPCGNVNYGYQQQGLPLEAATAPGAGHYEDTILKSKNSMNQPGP
T2 sequence (Q9UM73 1116-1392 L1196M/G1202R limits assumed): as the sequence (Q9UM73 1116-1392 limits assumed) above, with L81M, G87R counted along it
T7 sequence (P08922 1945-2222 G2032R limits assumed): as the sequence (P08922 1945-2222 limits assumed) above, with G88R counted along it
T9 sequence (P04629 510-781 limits assumed): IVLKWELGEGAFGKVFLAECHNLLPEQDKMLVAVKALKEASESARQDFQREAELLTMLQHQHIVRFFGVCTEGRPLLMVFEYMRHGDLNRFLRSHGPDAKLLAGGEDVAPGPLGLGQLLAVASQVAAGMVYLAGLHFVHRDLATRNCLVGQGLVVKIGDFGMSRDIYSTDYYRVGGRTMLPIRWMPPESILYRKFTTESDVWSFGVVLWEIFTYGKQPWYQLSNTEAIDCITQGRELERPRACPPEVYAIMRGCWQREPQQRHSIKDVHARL
T10 sequence (P04629 510-796 limits assumed): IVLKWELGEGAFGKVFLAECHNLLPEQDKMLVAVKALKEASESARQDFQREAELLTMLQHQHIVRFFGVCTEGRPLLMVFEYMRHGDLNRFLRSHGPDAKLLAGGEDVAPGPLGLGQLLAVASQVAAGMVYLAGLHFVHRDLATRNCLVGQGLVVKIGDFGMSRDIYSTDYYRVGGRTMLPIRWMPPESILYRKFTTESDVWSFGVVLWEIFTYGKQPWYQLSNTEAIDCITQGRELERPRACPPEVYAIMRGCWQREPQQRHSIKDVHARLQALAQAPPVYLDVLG
T1 sequence (Q9UM73 with tags, fused parts or gaps L1196M/G1202R): as the sequence (Q9UM73 with tags, fused parts or gaps) above, with L635M, G641R counted along it

Structure (SMILES)	pIC50 [1]	pKi (ALK L1196M/G1202R)	pIC50 [2]	pKi (ROS1-wt)	pIC50 [3]	pIC50 [4]	pKi (ROS1-G2032R)	TPM3-NTRK1-wt/CD74-ROS1-G2032R selectivity ratio [5]	TPM3-NTRK1-wt/CD74-ROS1-wt selectivity ratio [5]	TPM3-NTRK1-wt/EML4-ALK-L1196M-G1202R selectivity ratio [5]	TPM3-NTRK1-wt/EML4-ALK-wt selectivity ratio [5]	pKi (ALK-wt)	pKi (TRKA-wt)	pIC50 (Ba/F3 cells TPM3-TRKA)
CCn1ncc2c1-c1cnc(N)c(c1)O[C@H](C)c1cc(F)ccc1-c1oc(C)nc1C2 [Example 66, (19R)-3-ethyl-16-fluoro-10,19-dimethyl-11,20-dioxa-3,4,9,23-tetraazapentacyclo[19.3.1,0^2,^6.0^8,^12.0^13,^18]pentacosa-1(24),2(6),4,8(12),9,13,15,17,21(25),22-decaen-22-amine]	7.30 to 10.00	> 7.30	7.30 to 10.00	> 7.30	7.30 to 10.00	7.30 to 10.00	> 7.30	A (bin A for very high selectivity, ratio >30-fold)	A (bin A for very high selectivity, ratio >30-fold)	C (bin C for moderate selectivity, ratio ≥1)	B (bin B for high selectivity, ratio >10-fold)	> 7.30	6.30 to 7.30	6.30 to 7.30
C[C@H]1Oc2cc(cnc2N)-c2c(cnn2CC2CC2)Cc2nn(C)nc2-c2ccc(F)cc21 [Example 69, (19R)-3-(cyclopropylmethyl)-16-fluoro-10,19-dimethyl-20-oxa-3,4,9,10,11,23-hexaazapentacyclo[19.3.1.0^2,^6.0^8,^12.0^13,^18]pentacosa-1(24),2(6),4,8,11,13,15,17,21(25),22-decaen-22-amine]	7.30 to 10.00	> 7.30	7.30 to 10.00	> 7.30	7.30 to 10.00	7.30 to 10.00	> 7.30	A (bin A for very high selectivity, ratio >30-fold)	A (bin A for very high selectivity, ratio >30-fold)	A (bin A for very high selectivity, ratio >30-fold)	A (bin A for very high selectivity, ratio >30-fold)	> 7.30	< 6.30	< 6.30
C[C@H]1Oc2cc(cnc2N)-c2c(cnn2CC2CC2)Cn2ncnc2-c2ccc(F)cc21 [Example 70, (19R)-3-(cyclopropylmethyl)-16-fluoro-19-methyl-20-oxa-3,4,8,9,11,23-hexaazapentacyclo[19.3.1.0^2,^6.0^8,^12.0^13,^18]pentacosa-1(24),2(6),4,9,11,13,15,17,21(25),22-decaen-22-amine]	6.30 to 7.30	> 7.30	7.30 to 10.00	> 7.30	7.30 to 10.00	7.30 to 10.00	> 7.30	A (bin A for very high selectivity, ratio >30-fold)	A (bin A for very high selectivity, ratio >30-fold)	A (bin A for very high selectivity, ratio >30-fold)	A (bin A for very high selectivity, ratio >30-fold)	> 7.30	< 6.30	< 6.30
Cc1nn(CC2CC2)c2c1Cc1nn(C)nc1-c1ccc(F)cc1COc1cc-2cnc1N [Example 71, 3-(cyclopropylmethyl)-16-fluoro-5,10-dimethyl-20-oxa-3,4,9,10,11,23-hexaazapentacyclo[19.3.1.0^2,^6.0^8,^12.0^13,^18]pentacosa-1(24),2(6),4,8,11,13,15,17,21(25),22-decaen-22-amine]	6.30 to 7.30	> 7.30	6.30 to 7.30	> 7.30	7.30 to 10.00	7.30 to 10.00	6.30 to 7.30	A (bin A for very high selectivity, ratio >30-fold)	A (bin A for very high selectivity, ratio >30-fold)	B (bin B for high selectivity, ratio >10-fold)	A (bin A for very high selectivity, ratio >30-fold)	> 7.30	< 6.30	< 6.30
C[C@H]1Oc2cc(cnc2N)-c2c(cnn2CC2CC2)Cc2ncc(F)cc2-c2ccc(F)cc21 [Example 72, (20R)-3-(cyclopropylmethyl)-11,17-difluoro-20-methyl-21-oxa-3,4,9,24-tetraazapentacyclo[20.3.1.0^2,^6.0^8,^13.0^14,^19]hexacosa-1(25),2(6),4,8(13),9,11,14,16,18,22(26),23-undecaen-23-amine]	7.30 to 10.00	> 7.30	7.30 to 10.00	> 7.30	7.30 to 10.00	7.30 to 10.00	> 7.30	A (bin A for very high selectivity, ratio >30-fold)	A (bin A for very high selectivity, ratio >30-fold)	A (bin A for very high selectivity, ratio >30-fold)	A (bin A for very high selectivity, ratio >30-fold)	> 7.30	6.30 to 7.30	6.30 to 7.30
